The text below walks through data of patent publication US8946407B2, “Fructosylated mangiferin and preparation method therefor and use thereof” (priority 2011, dated 2015).

In data set [1] the test system is Human chronic myelogenous leukemia cell strain K562. Description: K562 cell toxicity test (MTT method). The format is cell-based. To be noted: for Average suppression rate (%) / OD value: 48 h; for Average suppression rate (%): K562; for OD value: K562, A490 MTT. The protocol:
Human chronic myelogenous leukemia cell strain K562, purchased from the cell bank of Shanghai Cell Research Institute of Chinese Academy of Sciences; mangiferin, purchased from Nanjing Zelang Medical Science and Technology Co., Ltd.; monofructosyl-β (2,6)-mangiferin is prepared with the method described in this invention, with purity over 99% as determined by high performance liquid chromatography. Drug liquid and its storage: weigh 8.44 mg mangiferin powder and dissolve it in 2 mL DMSO to prepare it into 10 mmol/L mangiferin; weigh 11.68 mg monofructosyl-β (2,6)-mangiferin powder and dissolve it in 2 mL DMSO to prepare it into 10 mmol/L monofructosyl-β (2,6)-mangiferin; they are filtered with a 0.22 μm filter, packed in 1000 μL/doff and stored at −20° C., meanwhile, high concentration DMSO is filtered with a 0.22 μm filter for use as control. The K-562 cells are cultured in RPMI-1640 complete culture medium containing inactivated calf serum at volume fraction of 10%, 100 U penicillin and streptomycin, in an incubating box at 37° C., with 5% CO2 and at saturated humidity. Take K-562 cells in logarithmic growing phase, adjust its concentration to 1×10^5/mL, and inoculate them in a 96-hole culture plate, each hole with 90 μL of suspended cell liquid, the experimental group is treated with mangiferin and monofructosyl-β (2,6)-mangiferin at different end concentration (1, 5, 10, 20, 50, 100, 150 and 200 μmol/L), with 10 μL in each hole, the DMSO solvent control group is added with 20 μL PBS containing the corresponding drug solvent, and the blank group is added with 20 μL PBS. For each drug concentration, 6 repeating holes are provided. The culture plate is put back into the cell culture box, add 20 μL MTT (5 mg/mL) solution after 48 h, and after further incubation of 4 h in the culture box, add triple liquid 100 μL into each hole, put it still overnight to allow full dissolution of crystal. Vibrate it with oscillator for 20 min and determine the light absorption at 490 nm with a fully automatic ELISA instrument, and calculate the average suppression rate, the suppression rate (%)=(control group A490−test group A490)/control group A490), the experiment was repeated three times. Relevant analysis and Student t tests in Microsoft Excel 2003 were used, and data are presented in.

The next data set can be described thus: dissolvability at 25° C. It counts as physicochemical. How it is done:
As determined, at 25° C., the dissolvability of monofructosyl-β-(2,6)-mangiferin is 350 g/L, and that of bifructosyl-β-(2,6)-mangiferin is 1200 g/L, respectively 3.5×103 times and 1.2×104 times that of mangiferin (0.1 g/L) under the same condition.

Regarding `O=c1c2cc(O)c(O)cc2oc2cc(O)c([C@@H]3O[C@H](CO)[C@@H](O)[C@H](O)[C@H]3O)c(O)c12` [mangiferin], the “Average suppression rate (%)” value in data set [1] (1 μmol/L) is 7.74%; in data set [1] (5 μmol/L), 8.39%; in data set [1] (10 μmol/L), 10.75%; in data set [1] (20 μmol/L), 3.52%; in data set [1] (50 μmol/L), −3.9%; in data set [1] (100 μmol/L), −16.08%. In addition, the “Average suppression rate (%)” value in data set [1] (150 μmol/L) is given as −10.61%; in data set [1] (200 μmol/L), −14.56%. The OD value in data set [1] (1 μmol/L) was found to be 0.952 ± 0.034; in data set [1] (5 μmol/L) it was 0.945 ± 0.041; in data set [1] (10 μmol/L), 0.921 ± 0.036; in data set [1] (20 μmol/L), 0.995 ± 0.086; in data set [1] (50 μmol/L), 1.096 ± 0.143; in data set [1] (100 μmol/L), 1.198 ± 0.048. Also, the figures for the OD value in data set [1] (150 μmol/L) and in data set [1] (200 μmol/L) were 1.141 ± 0.049 and 1.182 ± 0.175, respectively.
Regarding bifructosyl-β-(2,6)-mangiferin, in “dissolvability at 25° C.”, the dissolvability came out at 1200 g/L.
As for monofructosyl-β-(2,6)-mangiferin, the “Average suppression rate (%)” value stood at 4.53% in data set [1] (1 μmol/L); 8.79% in data set [1] (5 μmol/L); 8.19% in data set [1] (10 μmol/L); 8.56% in data set [1] (20 μmol/L); 8.87% in data set [1] (50 μmol/L); 23.19% in data set [1] (100 μmol/L). For the same compound, the “Average suppression rate (%)” value was determined as 36.53% in data set [1] (150 μmol/L) and 41.48% in data set [1] (200 μmol/L). Besides, the OD value in data set [1] (1 μmol/L) is 0.982 ± 0.039; in data set [1] (5 μmol/L) it was 0.938 ± 0.102; in data set [1] (10 μmol/L) it was 0.944 ± 0.053; in data set [1] (20 μmol/L), 0.941 ± 0.040; in data set [1] (50 μmol/L) it was 0.938 ± 0.041; in data set [1] (100 μmol/L), 0.790 ± 0.098. Also, the OD value in data set [1] (150 μmol/L) is 0.653 ± 0.026; in data set [1] (200 μmol/L), 0.602 ± 0.021. In data set [1] (after acting for 48 h, MTT method), the “effect on K562 cell proliferation (in words)” value was “can markedly suppress the proliferation”. In “dissolvability at 25° C.”, this compound registered a dissolvability of 350 g/L.
